# Literature values in PMC5742115, “Pharmacophore Modeling and in Silico/in Vitro Screening for Human Cytochrome P450 11B1 and Cytochrome P450 11B2 Inhibitors” (Frontiers in Chemistry, 2017).
# Read-outs that look alike come from different tables or passages of the source.
# Legend:
# CYP11B2 = conditions: cited from earlier work
# CYP11B1 = conditions: cited from earlier work
# [1] = reported activity, supplementary Table 1, ref Heim et al., 2008, read-out: CYP11B2 IC50
# [2] = reported activity, supplementary Table 1, ref Heim et al., 2008, read-out: CYP11B1 IC50
# [3] = reported activity, supplementary Table 1, ref Yin et al., 2013, read-out: CYP11B2 IC50
# [4] = reported activity, supplementary Table 1, ref Yin et al., 2013, read-out: CYP11B1 IC50
# [5] = reported activity, supplementary Table 1, ref Lucas et al., 2011, read-out: CYP11B2 IC50
# [6] = reported activity, supplementary Table 1, ref Lucas et al., 2011, read-out: CYP11B1 IC50
# [7] = reported activity, supplementary Table 1, ref Hille et al., 2011b, read-out: CYP11B2 IC50
# [8] = reported activity, supplementary Table 1, ref Hille et al., 2011b, read-out: CYP11B1 IC50
# [9] = reported activity, supplementary Table 1, ref Yin et al., 2012, read-out: CYP11B2 IC50
# [10] = reported activity, supplementary Table 1, ref Yin et al., 2012, read-out: CYP11B1 IC50
# [11] = reported activity, supplementary Table 1, ref Ulmschneider et al., 2005b, read-out: CYP11B2 IC50
# [12] = reported activity, supplementary Table 1, ref Ulmschneider et al., 2005b, read-out: CYP11B1 IC50
# [13] = reported activity, supplementary Table 1, ref Ulmschneider et al., 2005a, read-out: CYP11B2 IC50
# [14] = reported activity, supplementary Table 1, ref Ulmschneider et al., 2005a, read-out: CYP11B1 IC50
# [15] = reported activity, supplementary Table 1, ref Voets et al., 2005, read-out: CYP11B2 IC50
# [16] = reported activity, supplementary Table 1, ref Voets et al., 2005, read-out: CYP11B1 IC50
# [17] = reported activity, supplementary Table 1, ref Gobbi et al., 2013, read-out: CYP11B2 IC50
# [18] = reported activity, supplementary Table 1, ref Gobbi et al., 2013, read-out: CYP11B1 IC50
# [19] = reported activity, supplementary Table 1, ref Lucas et al., 2008b, read-out: CYP11B2 IC50
# [20] = reported activity, supplementary Table 1, ref Lucas et al., 2008b, read-out: CYP11B1 IC50
# [21] = reported activity, supplementary Table 1, ref Emmerich et al., 2013, read-out: CYP11B2 IC50
# [22] = reported activity, supplementary Table 1, ref Emmerich et al., 2013, read-out: CYP11B1 IC50
# [23] = reported activity, supplementary Table 1, ref Hu et al., 2012, read-out: CYP11B2 IC50
# [24] = reported activity, supplementary Table 1, ref Hu et al., 2012, read-out: CYP11B1 IC50
# [25] = reported activity, supplementary Table 1, ref Roumen et al., 2010, read-out: CYP11B2 IC50
# [26] = reported activity, supplementary Table 1, ref Roumen et al., 2010, read-out: CYP11B1 IC50
# [27] = reported activity, supplementary Table 1, ref Pinto-Bazurco Mendieta et al., 2013, read-out: CYP11B2 IC50
# [28] = reported activity, supplementary Table 1, ref Pinto-Bazurco Mendieta et al., 2013, read-out: CYP11B1 IC50
compound,measurement,setting,value
COc1ccc2cc(-c3cncc4ccccc34)ccc2c1 [CHEMBL500394],IC50,CYP11B2; [1],0.6 nM
same,IC50,CYP11B1; [2],67 nM
O=C1CCc2cc(C(c3ccncc3)c3cccc(F)c3)cc3c2N1CC3 (centres unmarked) [CHEMBL2312958],IC50,CYP11B2; [3],88 nM
same,IC50,CYP11B1; [4],532 nM
O=C1CCc2cc(-c3cccnc3)cc3c2N1CCC3 [CHEMBL1765206],IC50,CYP11B2; [5],2.4 nM
same,IC50,CYP11B1; [6],2300 nM
c1ccc(-c2ccc(Cn3ccnc3)s2)cc1 [CHEMBL1651514],IC50,CYP11B2; [7],353 nM
same,IC50,CYP11B1; [8],43 nM
CCC(c1cc2c3c(c1)CCN3C(=O)CC2)n1ccnc1 (centres unmarked) [CHEMBL2163637],IC50,CYP11B2; [9],5.8 nM
same,IC50,CYP11B1; [10],6.5 nM
C(=C1\CCCc2ccccc21)/c1c[nH]cn1 [CHEMBL367719],IC50,CYP11B2; [11],9.6 nM
same,IC50,CYP11B1; [12],3.3 nM
C(=C1/CCCc2ccccc21)/c1cccnc1 [CHEMBL193606],IC50,CYP11B2; [13],22 nM
same,IC50,CYP11B1; [14],715 nM
Cc1cccc(Cn2ccnc2)c1 [CHEMBL1651493],IC50,CYP11B2; [7],110 nM
same,IC50,CYP11B1; [8],48 nM
Brc1ccc2c(c1)CC/C2=C\c1cnc[nH]1 [CHEMBL177293],IC50,CYP11B2; [13],37 nM
same,IC50,CYP11B2; [11],92.8 nM
same,IC50,CYP11B1; [14],1940 nM
O=C1CCc2cc(-c3cncc(-c4cccc(C(F)(F)F)c4)c3)cc3c2N1CC3 [CHEMBL1765231],IC50,CYP11B2; [5],33 nM
same,IC50,CYP11B1; [6],4650 nM
CCOc1ccc2cc(-c3cccnc3)ccc2c1 [CHEMBL193343],IC50,CYP11B2; [15],12 nM
same,IC50,CYP11B1; [16],5420 nM
COc1ccc2cc(-c3cnccc3N)ccc2c1 [CHEMBL453169],IC50,CYP11B2; [1],13 nM
same,IC50,CYP11B1; [2],1520 nM
O=C1CCc2cc(C(c3ccccc3)n3ccnc3)cc3c2N1CC3 (centres unmarked) [CHEMBL2163649],IC50,CYP11B2; [9],33 nM
same,IC50,CYP11B1; [10],50 nM
O=c1c2ccccc2oc2c(OC3CCCC3)ccc(Cn3ccnc3)c12 [CHEMBL2333335],IC50,CYP11B2; [17],99.7 nM
same,IC50,CYP11B1; [18],268 nM
COc1ccc2cc(-c3cncc(-c4ccccc4)c3)ccc2c1 [CHEMBL500393],IC50,CYP11B2; [1],4.8 nM
same,IC50,CYP11B1; [2],151 nM
S=C1CCc2cc(-c3cccnc3)ccc2N1 [CHEMBL511329],IC50,CYP11B2; [19],3.1 nM
same,IC50,CYP11B1; [20],580 nM
O=C1CCc2cc(-c3cncnc3)cc3c2N1CC3 [CHEMBL1765217],IC50,CYP11B2; [5],56 nM
same,IC50,CYP11B1; [6],28500 nM
N#Cc1ccc2c(c1)CCC(c1cccnc1)=C2 [CHEMBL500663],IC50,CYP11B2; [1],4.5 nM
same,IC50,CYP11B1; [2],461 nM
CCC(c1ccc(-c2ccccc2)nc1)n1ccnc1 (centres unmarked) [CHEMBL2417620],IC50,CYP11B2; [21],92 nM
same,IC50,CYP11B1; [22],28 nM
COc1cc2c(cc1-c1cccnc1)CCC(=O)N2C [CHEMBL2165315],IC50,CYP11B2; [23],19 nM
same,IC50,CYP11B1; [24],1100 nM
COc1ccc(Cn2cncc2-c2ccccc2)cc1 [CHEMBL591697],IC50,CYP11B2; [25],14 nM
same,IC50,CYP11B1; [26],11 nM
c1ccc(-c2ccc(C(c3ccco3)n3ccnc3)cn2)cc1 (centres unmarked) [CHEMBL2417623],IC50,CYP11B2; [21],74 nM
same,IC50,CYP11B1; [22],69 nM
FC(F)(F)c1cncc(Cc2ccc(-c3ccccc3)nc2)c1 [CHEMBL2417613],IC50,CYP11B2; [21],115 nM
same,IC50,CYP11B1; [22],38 nM
COc1ccccc1-c1cncc(-c2cc3c4c(c2)CCN4C(=O)CC3)c1 [CHEMBL1765226],IC50,CYP11B2; [5],2.4 nM
same,IC50,CYP11B1; [6],128 nM
C(=C1/CCCc2ccccc21)/c1ccncc1 [CHEMBL360026],IC50,CYP11B2; [13],15 nM
same,IC50,CYP11B1; [14],143 nM
Fc1ccc2c(c1)CC/C2=C\c1cncnc1 [CHEMBL195248],IC50,CYP11B2; [11],6 nM
same,IC50,CYP11B1; [12],27 nM
Fc1ccc2c(c1)CC/C2=C/c1cccnc1 [CHEMBL383806],IC50,CYP11B2; [13],11 nM
same,IC50,CYP11B1; [14],125 nM
COc1ccc2ccc(-c3cncc4ccccc34)c(Cl)c2c1 [CHEMBL2420687],IC50,CYP11B2; [27],54 nM
same,IC50,CYP11B1; [28],362 nM
N#CC1=Cc2ccc(-c3cccnc3)cc2CC1 [CHEMBL461884],IC50,CYP11B2; [19],1.6 nM
same,IC50,CYP11B1; [20],290 nM
COc1ccc2cc(-c3cncc(O)c3)ccc2c1 [CHEMBL500636],IC50,CYP11B2; [1],94 nM
same,IC50,CYP11B1; [2],8920 nM
O=C1CCc2cc(-c3cccnc3)ccc2C1 [CHEMBL462093],IC50,CYP11B2; [19],7.8 nM
same,IC50,CYP11B1; [20],3960 nM
N#Cc1ccc2cc(-c3cccnc3)ccc2c1 [CHEMBL196796],IC50,CYP11B2; [15],3 nM
same,IC50,CYP11B1; [16],691 nM
CCC(C)Oc1ccc(Cn2ccnc2)c2c(=O)c3ccccc3oc12 (centres unmarked) [CHEMBL2333333],IC50,CYP11B2; [17],15.3 nM
same,IC50,CYP11B1; [18],13.1 nM
CCOc1cc2c(cc1-c1cccnc1)CCC(=O)N2C [CHEMBL2165317],IC50,CYP11B2; [23],19 nM
same,IC50,CYP11B1; [24],790 nM
N#Cc1ccc(Cn2cncc2-c2ccc(F)cc2)cc1 [CHEMBL598790],IC50,CYP11B2; [25],25 nM
same,IC50,CYP11B1; [26],27 nM
Cc1cccc(C(c2ccncc2)c2cc3c4c(c2)CCN4C(=O)CC3)c1 (centres unmarked) [CHEMBL2312962],IC50,CYP11B2; [3],41 nM
same,IC50,CYP11B1; [4],1340 nM
O=C1CCc2cc(-c3cncc(-c4ccccc4)c3)cc3c2N1CC3 [CHEMBL1765219],IC50,CYP11B2; [5],1.3 nM
same,IC50,CYP11B1; [6],58 nM
CCOc1ccc2c(c1)CC/C2=C\c1cccnc1 [CHEMBL425323],IC50,CYP11B2; [13],79 nM
same,IC50,CYP11B1; [14],2370 nM
c1ccc(-c2ccc(Cc3ccncc3)cn2)cc1 [CHEMBL2417634],IC50,CYP11B2; [21],621 nM
same,IC50,CYP11B1; [22],98 nM
COC(=O)OCc1cncn1Cc1ccc(C#N)cc1 [CHEMBL599222],IC50,CYP11B2; [25],44 nM
same,IC50,CYP11B1; [26],213 nM
CC(C)Oc1cncc(-c2cc3c4c(c2)CCN4C(=O)CC3)c1 [CHEMBL1765210],IC50,CYP11B2; [5],2.2 nM
same,IC50,CYP11B1; [6],103 nM
Oc1ccc2ccc(-c3cncc(F)c3)c(Cl)c2c1 [CHEMBL2420680],IC50,CYP11B2; [27],33 nM
same,IC50,CYP11B1; [28],450 nM
COCc1ccncc1-c1ccc2cc(OC)ccc2c1 [CHEMBL500676],IC50,CYP11B2; [1],2.2 nM
same,IC50,CYP11B1; [2],435 nM
CC(c1ccc(-c2ccccc2)nc1)n1ccnc1 (centres unmarked) [CHEMBL2417619],IC50,CYP11B2; [21],200 nM
same,IC50,CYP11B1; [22],33 nM
C=C(c1ccncc1)c1cc2c3c(c1)CCN3C(=O)CC2 [CHEMBL2312949],IC50,CYP11B2; [3],96 nM
same,IC50,CYP11B1; [4],1230 nM
Cc1ccncc1-c1ccc2cc(C#N)ccc2c1 [CHEMBL500665],IC50,CYP11B2; [1],0.6 nM
same,IC50,CYP11B1; [2],52 nM
O=C1CCc2cc(C(c3ccncc3)c3ccc(F)cc3)cc3c2N1CC3 (centres unmarked) [CHEMBL2312959],IC50,CYP11B2; [3],56 nM
same,IC50,CYP11B1; [4],88 nM
Fc1ccc2c(c1)CC/C2=C\c1cccnc1 [CHEMBL193997],IC50,CYP11B2; [13],7 nM
same,IC50,CYP11B1; [14],311 nM
N#Cc1ccc(C2(C(=O)OCc3ccc(F)cc3)CCc3cncn32)c(Cl)c1 (centres unmarked) [Compound 5],IC50,"CYP11B2; Figure 3, training compounds, ref Meredith et al., 2013, read-out: hCYP11B2 IC50",3.8 nM
same,IC50,"CYP11B1; Figure 3, training compounds, ref Meredith et al., 2013, read-out: hCYP11B1 IC50",< 0.1 nM
